Assay results reported in patent publication US20230390287A1, “MODULATORS OF PD-L1/PD-1 INTERACTION AND USES THEREOF” (Ramot at Tel-Aviv University Ltd., priority 2021, published 2023).
pIC50: −log10 of the molar value. “Also recorded” adds a separate entry of the source.

Key:
PD-1/PD-L1 interaction = PD-1/PD-L1 interaction (Homo sapiens (Human), UniProt Q9NZQ7); assay: HTRF PD-1/PD-L1 binding assay; format: biochemical; parameters: key to HTF assay (100 μM): +: positive compounds using 100 μM on HTRF
[1] = tested on: patient-derived melanoma (Mel4) spheroids with autologous PBMC; assay: 3D patient-derived melanoma spheroid - PBMC co-culture; format: cell-based, human; details: vs αPD-L1 and untreated
Description: 3D Patient-Derived Tumor Spheroids—Lymphocyte Co-Culture:
After isolation of tumor cells, cells were washed and cultured for up to 3 days. This allowed the isolation of adherent cells that were then scrapped and seeded in Nunclon Sphera 96-well plate (Thermo Fisher Scientific) to create a unique uniform spheroid in each well. Spheroids were ready on day 2-5. Thereafter, spheroids were embedded in reduced growth Matrigel (Corning) with PBMC (1:100) and were left untreated or were treated with the small-molecule inhibitor Compound 69 or αPD-L1, dissolved in the appropriate cell culture medium.
3D co-culture was fixed with 4% paraformaldehyde and blocked by PBS with 2% (m/v) BSA. Thereafter, the samples were incubated with CD8 (MA5-16345—Invitrogen) (1:50) in PBS with 1% (v/v) Tween® 20 for 18 hours at 4° C. Then, 4 μg/ml of secondary antibody (A-11008, Invitrogen) were added, 3D spheroids were stained with Hoechst 33342 (10 μg/ml) for 20 minutes. […] The different z-stacks were merged and analyzed by Fiji-ImageJ.
The ability of PD-1/PD-L1 inhibitors (small-molecule inhibitor Compound 69 and αPD-L1) to promote CD8^+ T-cell infiltration into the tumor site was evaluated using a 3D co-culture system. […] The CD8^+ T-cell infiltration (green) was evaluated after 72 hours of co-culture by confocal microscopy. […]

[2] = tested on: patient-derived tumor cells and autologous PBMC (CD8+ T cells); assay: Co-culture of patient-derived PBMC and autologous tumor cells; format: cell-based, human; details: 72 hours of co-culture; 7 patients
Description: Tumor—Lymphocyte Co-Culture:
One day before co-culture, PBMC were re-suspended in RPMI-1640 supplemented with 150 U/ml IL-2 (Peprotech) and cultured overnight at 37° C. Prior to co-culture, tumor cells were stimulated overnight with 200 ng/ml human recombinant IFN-γ (Peprotech). The next day, tumor cells were scraped to single cells and re-suspended in RPMI. PBMC were seeded at a density of […] and stimulated with single cell-dissociated tumor cells at a 2:1 Effector:Target ratio. Co-cultures were performed in the presence of 150 U/ml IL-2 (Peprotech), 5 μg/ml of anti-CD28 (BioxCell) and αPD-L1 blocking antibody or small-molecule inhibitor for 72 hours. The cells were then stained with fluorochrome-labeled antibodies and analyzed using an LSR Fortessa (BD Biosciences) and FlowJo software. […]
The PBMC and tumor cells were co-cultured and treated with anti-CD28 (blue) and PD-L1 inhibitors (small-molecule inhibitor Compound 69 (yellow) and anti-PD-L1 (red)) for 72 hours. The PD-1/PD-L1 inhibition and T-cell activation were assessed using flow cytometry, and the obtained data is shown in FIGS. 8B-E. The anti-PD-L1 (αPD-L1) was added as the relevant control for PD-L1 inhibition.

Chain of PD-1/PD-L1 interaction (Q9NZQ7 19-238): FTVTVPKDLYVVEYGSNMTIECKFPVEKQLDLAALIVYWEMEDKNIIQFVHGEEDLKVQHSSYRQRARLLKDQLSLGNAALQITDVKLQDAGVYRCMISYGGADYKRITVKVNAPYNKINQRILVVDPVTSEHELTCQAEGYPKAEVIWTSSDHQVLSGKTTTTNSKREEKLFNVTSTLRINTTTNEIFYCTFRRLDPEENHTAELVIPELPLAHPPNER

CCCCCN(CCCCC)C(C)C(=O)c1cc(C)c2ccc3cc(C(C)C)ccc3c2c1.Cl (centres unmarked) [Compound 69]
pIC50 (PD-1/PD-L1 interaction; HTRF dose-response starting from 100 μM): 6.71
pIC50 (PD-1/PD-L1 interaction; Table A, HTRF dose-response, NA = Not applicable (No dose-response effect)): 6.71
pIC50 (PD-1/PD-L1 interaction; Table B, HTRF dose-response, NA = no dose-response effect): 6.71
HTF assay (100 μM) (PD-1/PD-L1 interaction; compounds at 100 μM, hits defined as at least 50% inhibition of PD-1/PD-L1 interaction): +
CD8+ T cell infiltration within the tumor spheroid ([1]; 72 hours of co-culture): higher CD8^+ T cell infiltration
sprouting of patient-derived melanoma cells ([1]; Mel4 spheroids): inhibited the melanoma cells sprouting; also recorded: strongly inhibited the sprouting
CD107a upregulation in CD8+ T cells [2]: induced
IFN-γ secretion in CD8+ T cells [2]: induced
